Data set [1] addresses T1, human GLP-1 receptor (Homo sapiens, UniProt P43220).
T1 construct: expressed in transfected cells; host or cells: HEK-293 Aurora CRE-BLAM cells
The data set is described as follows: In vitro activity, HEK-293 Aurora CRE-BLAM cells, β-lactamase reporter. It is filed as cell-based. As to conditions: comparison with the acid form; test not specified. An excerpt:
The day after seeding, the medium is replaced with plasma free medium.

A short description of data set [2]: Aggregation time in solution, turbidity at 350 nm while stirred. As to conditions: 37° C.; 0.3 mg/mL in 10 mM citrate, 10 mM phosphate, 150 mM NaCl, pH 7.4 to 7.5, stirred. It is filed as physicochemical. As to the method:
The peptides in solution were stirred at elevated temperature in a suitable buffer while recording turbidity at 350 nm as a function of time. Time to the onset of aggregation was measured to quantify the potential of each GLP-1 molecule to aggregate under these stressed conditions.
In general, the peptides in solution were stirred at elevated temperature in a suitable buffer while recording turbidity at 350 nm as a function of time. Time to the onset of aggregation was measured to quantify the potential of a given GLP molecule to aggregate under these stressed conditions.
The GLP-1 peptides were first dissolved under alkaline conditions (pH 10.5) for 30 minutes to dissolve any pre-aggregated material. The solution was then adjusted to pH 7.4 and filtered. Specifically, 4 mg of a lyophilized GLP-1 peptide was dissolved in 3 mL of 10 mM phosphate/10 mM citrate. The pH was adjusted to 10.0–10.5 and held for 30 minutes. The solution was adjusted with HCl to pH 7.4 and filtered through a suitable filter, for example a Millex® GV syringe filter (Millipore Corporation, Bedford, Mass.). This solution was then diluted to a final sample containing 0.3 mg/mL protein in 10 mM citrate, 10 mM phosphate, 150 mM NaCl, and adjusted to pH 7.4 to 7.5. […] Every five minutes the turbidity of the solution was measured at 350 nm on an AVIV Model 14DS UV-VIS spectrophotometer (Lakewood, N.J.). […]

T1 sequence (P43220 24-463): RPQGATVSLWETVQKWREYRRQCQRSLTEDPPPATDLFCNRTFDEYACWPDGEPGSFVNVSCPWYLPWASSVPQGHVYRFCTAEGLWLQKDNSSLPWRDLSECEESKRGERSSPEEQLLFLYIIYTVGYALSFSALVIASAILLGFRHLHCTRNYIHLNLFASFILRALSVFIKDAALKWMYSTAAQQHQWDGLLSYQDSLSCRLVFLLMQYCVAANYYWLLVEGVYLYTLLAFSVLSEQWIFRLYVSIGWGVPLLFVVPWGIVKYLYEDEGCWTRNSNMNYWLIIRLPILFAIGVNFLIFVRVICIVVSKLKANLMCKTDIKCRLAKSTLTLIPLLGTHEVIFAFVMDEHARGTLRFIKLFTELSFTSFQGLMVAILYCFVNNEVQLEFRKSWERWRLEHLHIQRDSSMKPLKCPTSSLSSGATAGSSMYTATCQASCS

For Val^8-GLP-1(7–36)NH2, the “Potency compared to the acid form Val^8-GLP-1(7–37)OH (in words)” value in data set [1] is listed as “slightly less potent than the acid form”.
For “Val^8-GLP-1(7–37)NH2 (HXEGTFTSDVSSYLEXQAAKXFIXWLVKGRX; C-terminal amide) [GLP-1(7–37)OH wherein Ala at position 8 has been substituted with Val and Gly at position 37 has been amidated]”, the “Time to onset of aggregation” value in data set [2] is on record as “approximately 23 hours”.
